Assay results published in patent US7880007B2, “Bicyclic substituted phenyl piperidine modulators of muscarinic receptors” (Vertex Pharmaceuticals Incorporated, priority 2004, dated 2011).

Columns and labels:
Type in all cases: cell-based
M4 muscarinic receptor = target: T1, M4 muscarinic receptor (Homo sapiens, UniProt P08173); assay: Functional mobilization of intracellular calcium (FLIPR), M4-CHO cells; settings: for Emax: 100% efficacy = maximum response obtained with the Carbachol control; for M4 Activity: M4-CHO cells, calcium mobilization (FLIPR)
T1 construct: expressed in transfected cells; host or cells: CHO (M4-CHO)
T1 sequence (P08173 1-479): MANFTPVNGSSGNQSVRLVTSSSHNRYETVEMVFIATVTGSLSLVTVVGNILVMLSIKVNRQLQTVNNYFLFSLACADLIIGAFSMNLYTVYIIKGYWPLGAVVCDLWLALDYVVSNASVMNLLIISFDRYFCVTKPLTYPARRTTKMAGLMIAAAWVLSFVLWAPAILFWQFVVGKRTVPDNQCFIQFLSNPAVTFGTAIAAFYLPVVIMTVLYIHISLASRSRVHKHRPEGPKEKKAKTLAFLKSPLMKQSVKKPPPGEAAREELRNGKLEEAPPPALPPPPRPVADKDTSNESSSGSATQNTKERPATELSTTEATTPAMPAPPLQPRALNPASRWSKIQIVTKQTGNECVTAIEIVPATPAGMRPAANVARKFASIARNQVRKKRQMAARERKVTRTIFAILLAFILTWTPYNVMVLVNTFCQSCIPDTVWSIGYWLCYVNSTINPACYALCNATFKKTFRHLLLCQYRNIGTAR
In short: (§1)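 CHO cells expressing human M1–M4 receptors loaded with Fluo-3 AM or Calcium 3 dye (1 mM probenecid, pH 7.4); 0.5% DMSO final. Agonist mode: compound added directly; antagonist mode: 15 min pre-incubation or co-application, then carbachol at EC80. Fluorescence read 60 s on FLIPR; efficacy relative to carbachol maximum.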

M1 muscarinic receptor = target: T2, M1 muscarinic receptor (Homo sapiens, UniProt P11229); assay: Functional mobilization of intracellular calcium (FLIPR), M1-CHO cells; settings: for Emax: 100% efficacy = maximum response obtained with the Carbachol control; for M1 Activity: M1-CHO cells, calcium mobilization (FLIPR)
T2 construct: expressed in transfected cells; host or cells: CHO (M1-CHO)
T2 sequence (P11229 1-460): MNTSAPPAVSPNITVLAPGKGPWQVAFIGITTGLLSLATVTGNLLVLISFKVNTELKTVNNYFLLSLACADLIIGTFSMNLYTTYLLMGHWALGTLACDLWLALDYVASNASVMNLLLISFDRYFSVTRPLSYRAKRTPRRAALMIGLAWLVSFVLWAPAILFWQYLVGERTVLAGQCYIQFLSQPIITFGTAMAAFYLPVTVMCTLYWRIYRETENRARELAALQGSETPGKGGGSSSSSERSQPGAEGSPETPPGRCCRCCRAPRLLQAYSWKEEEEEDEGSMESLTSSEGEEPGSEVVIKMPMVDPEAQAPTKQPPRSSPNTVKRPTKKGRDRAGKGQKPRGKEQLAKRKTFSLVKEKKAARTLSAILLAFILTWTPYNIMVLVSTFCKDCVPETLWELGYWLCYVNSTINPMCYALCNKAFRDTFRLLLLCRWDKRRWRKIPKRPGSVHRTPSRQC
In short: as §1

M3 muscarinic receptor = target: T3, M3 muscarinic receptor (Homo sapiens, UniProt P20309); assay: Functional mobilization of intracellular calcium (FLIPR), M3-CHO cells; settings: for Emax: 100% efficacy = maximum response obtained with the Carbachol control; for M3 Activity: M3-CHO cells, calcium mobilization (FLIPR)
T3 construct: expressed in transfected cells; host or cells: CHO (M3-CHO)
In short: as §1

M2 muscarinic receptor = target: T4, M2 muscarinic receptor (Homo sapiens, UniProt P08172); assay: Functional mobilization of intracellular calcium (FLIPR), M2-CHO cells; settings: for Emax: 100% efficacy = maximum response obtained with the Carbachol control; for M2 Activity: M2-CHO cells, calcium mobilization (FLIPR)
T4 construct: expressed in transfected cells; host or cells: CHO (M2-CHO)
T4 sequence (P08172 1-466): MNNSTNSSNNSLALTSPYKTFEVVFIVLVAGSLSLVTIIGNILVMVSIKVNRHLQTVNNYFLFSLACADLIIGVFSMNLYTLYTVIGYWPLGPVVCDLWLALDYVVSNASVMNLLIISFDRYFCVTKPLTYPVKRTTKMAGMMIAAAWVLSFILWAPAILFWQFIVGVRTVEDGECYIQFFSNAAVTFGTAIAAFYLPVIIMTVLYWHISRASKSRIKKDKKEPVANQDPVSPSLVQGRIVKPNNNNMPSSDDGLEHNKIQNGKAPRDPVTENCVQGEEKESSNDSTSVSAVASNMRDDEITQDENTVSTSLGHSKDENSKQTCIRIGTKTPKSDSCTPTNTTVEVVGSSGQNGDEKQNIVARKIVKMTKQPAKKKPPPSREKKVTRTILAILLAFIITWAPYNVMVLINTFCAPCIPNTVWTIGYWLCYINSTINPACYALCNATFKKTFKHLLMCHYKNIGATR
In short: as §1

T3 sequence (P20309 whole entry): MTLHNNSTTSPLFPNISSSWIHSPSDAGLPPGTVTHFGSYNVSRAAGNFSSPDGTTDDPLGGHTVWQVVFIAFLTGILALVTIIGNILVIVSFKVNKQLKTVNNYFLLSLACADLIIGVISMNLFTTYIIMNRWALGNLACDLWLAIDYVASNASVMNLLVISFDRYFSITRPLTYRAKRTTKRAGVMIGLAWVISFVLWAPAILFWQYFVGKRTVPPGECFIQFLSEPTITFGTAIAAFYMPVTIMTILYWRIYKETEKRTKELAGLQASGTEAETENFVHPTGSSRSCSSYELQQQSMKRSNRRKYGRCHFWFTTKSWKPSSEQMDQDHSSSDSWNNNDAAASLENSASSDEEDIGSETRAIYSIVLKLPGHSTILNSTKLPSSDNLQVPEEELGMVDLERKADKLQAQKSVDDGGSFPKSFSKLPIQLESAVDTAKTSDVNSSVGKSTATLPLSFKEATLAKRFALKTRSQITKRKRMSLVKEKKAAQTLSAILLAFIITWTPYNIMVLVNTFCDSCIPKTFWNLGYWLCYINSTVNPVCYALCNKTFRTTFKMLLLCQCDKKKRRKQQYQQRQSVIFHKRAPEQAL

SMILES	Emax (M4 muscarinic receptor) [%]	M4 Activity (M4 muscarinic receptor)	Emax (M1 muscarinic receptor) [%]	M1 Activity (M1 muscarinic receptor)	Emax (M3 muscarinic receptor) [%]	M3 Activity (M3 muscarinic receptor)	Emax (M2 muscarinic receptor) [%]	M2 Activity (M2 muscarinic receptor)
COc1ccccc1C1CCN(C2CCCC2)CC1 [Compound 15]	25 to 100	+++ (activity was measured to be less than 1.0 μM)	< 25	+ (activity was measured to be greater than 5.0 μM)	< 25	+ (activity was measured to be greater than 5.0 μM)	< 25	+ (activity was measured to be greater than 5.0 μM)
O=C(COc1ccccc1C1CCN([C@H]2C[C@H]3CC[C@H]2C3)CC1)c1cccc(Cl)c1 [Compound 16]	25 to 100	++ (activity was measured to be from 1.0 μM to 5.0 μM)	< 25	+ (activity was measured to be greater than 5.0 μM)	< 25	+ (activity was measured to be greater than 5.0 μM)	< 25	+ (activity was measured to be greater than 5.0 μM)
COc1ccc(-c2ccc(C(=O)N3CCCC3)cc2)cc1C1CCN([C@H]2C[C@H]3CC[C@H]2C3)CC1 [Compound 17]	25 to 100	++ (activity was measured to be from 1.0 μM to 5.0 μM)	< 25	+ (activity was measured to be greater than 5.0 μM)	< 25	+ (activity was measured to be greater than 5.0 μM)	< 25	+ (activity was measured to be greater than 5.0 μM)
COc1ccc(F)cc1C1CCN(C[C@H]2C[C@H]3C=C[C@H]2C3)CC1 [Compound 18]	25 to 100	+++ (activity was measured to be less than 1.0 μM)	25 to 100	+++ (activity was measured to be less than 1.0 μM)	< 25	+ (activity was measured to be greater than 5.0 μM)	25 to 100	+++ (activity was measured to be less than 1.0 μM)
CCC(=O)COc1ccccc1C1CCN([C@H]2C[C@H]3CC[C@H]2C3)CC1 [Compound 19]	25 to 100	+++ (activity was measured to be less than 1.0 μM)	25 to 100	++ (activity was measured to be from 1.0 μM to 5.0 μM)	< 25	+ (activity was measured to be greater than 5.0 μM)	< 25	+ (activity was measured to be greater than 5.0 μM)
COc1ccc(-c2ccc([S+](C)[O-])cc2)cc1C1CCN(C2CCOCC2)CC1 (stereo not drawn) [Compound 22]	< 25	+ (activity was measured to be greater than 5.0 μM)	< 25	+ (activity was measured to be greater than 5.0 μM)	< 25	+ (activity was measured to be greater than 5.0 μM)	< 25	+ (activity was measured to be greater than 5.0 μM)
Cc1ccccc1C1CCN([C@H]2C[C@H]3CC[C@H]2C3)CC1 [Compound 24]	25 to 100	+++ (activity was measured to be less than 1.0 μM)	25 to 100	++ (activity was measured to be from 1.0 μM to 5.0 μM)	< 25	+ (activity was measured to be greater than 5.0 μM)	25 to 100	++ (activity was measured to be from 1.0 μM to 5.0 μM)
COc1ccccc1C1(O)CCN(C2CC3CCC2C3)CC1 (stereo not drawn) [Compound 25]	< 25	+ (activity was measured to be greater than 5.0 μM)	< 25	+ (activity was measured to be greater than 5.0 μM)	–	+ (activity was measured to be greater than 5.0 μM)	< 25	+ (activity was measured to be greater than 5.0 μM)
